Values quoted from earlier work in PMC7984292 (Chemmedchem, 2020).
Values joined by “and” are separate entries in the source; they are usually repeats but may differ in a detail not shown here. Equal values may be shown once.

How the values were obtained:
[1] = target: hDAT (Homo sapiens, UniProt Q01959); settings: read-out: IC50 hDAT; oxo isomers; taken from reference
[2] = not given; remark: listed apart in the source

Sequence of hDAT (Q01959 whole entry): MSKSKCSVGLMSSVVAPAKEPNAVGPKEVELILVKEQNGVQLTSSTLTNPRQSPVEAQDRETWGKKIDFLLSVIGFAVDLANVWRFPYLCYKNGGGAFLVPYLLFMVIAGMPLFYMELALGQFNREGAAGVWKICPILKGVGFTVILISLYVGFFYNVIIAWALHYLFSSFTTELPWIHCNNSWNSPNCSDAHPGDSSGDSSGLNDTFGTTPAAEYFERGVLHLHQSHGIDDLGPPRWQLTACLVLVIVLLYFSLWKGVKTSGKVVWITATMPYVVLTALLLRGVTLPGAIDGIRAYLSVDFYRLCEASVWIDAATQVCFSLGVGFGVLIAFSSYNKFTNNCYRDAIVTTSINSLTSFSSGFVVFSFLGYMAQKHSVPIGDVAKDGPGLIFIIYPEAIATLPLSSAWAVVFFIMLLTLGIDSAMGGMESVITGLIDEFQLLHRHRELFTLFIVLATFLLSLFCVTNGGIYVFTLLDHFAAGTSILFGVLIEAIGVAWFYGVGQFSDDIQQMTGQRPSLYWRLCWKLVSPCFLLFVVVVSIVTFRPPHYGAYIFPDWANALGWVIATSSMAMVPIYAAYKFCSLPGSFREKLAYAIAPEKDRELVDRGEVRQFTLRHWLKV

CN1[C@H]2CC[C@@H]1[C@@H](CN(CC[S-])CC[N-]CC[S-])[C@@H](c1ccc(Cl)cc1)C2.[O]=[99Tc+4] [TRODAT‐1 6]
log P (value in parentheses = log P, literature value): (0.29±0.04) ^[29]
IC50 [1]: 8.42 nM and 13.9 nM

O=C(O)CN(CCN(CC(=O)O)Cc1ccccc1O)Cc1ccccc1O [HBED]
log K GaL (stability constant for the Ga3+ complex) [2]: 38.51

COC(=O)[C@H]1[C@@H](OC(=O)c2ccccc2)C[C@@H]2CC[C@H]1N2C [cocaine 1, cocaine]
log D 7.4 (pH 7.4): 1.31±0.01 ^[22]
